According to ChEMBL document CHEMBL2406981, “Novel pyrazoline amidoxime and their 1,2,4-oxadiazole analogues: synthesis and pharmacological screening” (Bioorg Med Chem Lett, 2013):
Converted amounts (≈) assume the structure as drawn.

System: not listed separately
Assay: Antiinflammatory activity against heat-induced albumin denaturation at […] preincubated for 15 mins before heat induction by UV-vis spectrophotometer analysis
Type: functional
Conditions: not given

For `COc1cc(-c2nc(C3CC(c4ccc(O)cc4)=NN3c3ccccc3)no2)cc(OC)c1OC` (stereo unspecified), which inhibition is on record?
Its inhibition is 59.3%.

System: Aspergillus flavus
Assay: Antimicrobial activity against Aspergillus flavus MTCC 873
Type: functional
Conditions: not given

Which MIC does the source give for `COc1cc(-c2nc(C3CC(c4ccc(O)cc4)=NN3c3ccccc3)no2)cc(OC)c1OC` (stereo unspecified) here?
The MIC was 10 µg/mL (≈ 21.2 µM).

System: Aspergillus niger
Assay: Antimicrobial activity against Aspergillus niger MTCC 281
Type: functional
Conditions: not given

For `COc1cc(-c2nc(C3CC(c4ccc(O)cc4)=NN3c3ccccc3)no2)cc(OC)c1OC` (stereo unspecified), which MIC is on record?
The MIC was 5 µg/mL (≈ 10.6 µM).

System: Shigella flexneri
Assay: Antimicrobial activity against Shigella flexneri MTCC 1457
Type: functional
Conditions: not given

Which MIC does the source give for `COc1cc(-c2nc(C3CC(c4ccc(O)cc4)=NN3c3ccccc3)no2)cc(OC)c1OC` (stereo unspecified) here?
Its MIC is 10 µg/mL (≈ 21.2 µM).

System: Escherichia coli
Assay: Antimicrobial activity against Escherichia coli MTCC 724
Type: functional
Conditions: not given

Which MIC does the source give for `COc1cc(-c2nc(C3CC(c4ccc(O)cc4)=NN3c3ccccc3)no2)cc(OC)c1OC` (stereo unspecified) here?
Its MIC is 15 µg/mL (≈ 31.7 µM).

System: Klebsiella pneumoniae
Assay: Antimicrobial activity against Klebsiella pneumoniae MTCC 3384
Type: functional
Conditions: not given

Which MIC does the source give for `COc1cc(-c2nc(C3CC(c4ccc(O)cc4)=NN3c3ccccc3)no2)cc(OC)c1OC` (stereo unspecified) here?
The MIC was 10 µg/mL (≈ 21.2 µM).

System: Staphylococcus aureus
Assay: Antimicrobial activity against Staphylococcus aureus MTCC 96
Type: functional
Conditions: not given

With `COc1cc(-c2nc(C3CC(c4ccc(O)cc4)=NN3c3ccccc3)no2)cc(OC)c1OC` (stereo unspecified) as the compound, how does the MIC read?
The MIC was 15 µg/mL (≈ 31.7 µM).

System: Bacillus cereus
Assay: Antimicrobial activity against Bacillus cereus MTCC 8372
Type: functional
Conditions: not given

For `COc1cc(-c2nc(C3CC(c4ccc(O)cc4)=NN3c3ccccc3)no2)cc(OC)c1OC` (stereo unspecified), which MIC is on record?
The MIC was 10 µg/mL (≈ 21.2 µM).

System: Aspergillus niger
Assay: Antimicrobial activity against Aspergillus niger MTCC 281 at 50 ug/ml after 24 hrs by agar disc diffusion method
Type: functional
Conditions: MTCC 281, 24 h, read-out: DIZ

With `COc1cc(-c2nc(C3CC(c4ccc(O)cc4)=NN3c3ccccc3)no2)cc(OC)c1OC` (stereo unspecified) as the compound, how does the zone of inhibition at 50 µg/mL read?
Its zone of inhibition at 50 µg/mL is 18 mm.

System: Aspergillus niger
Assay: Antimicrobial activity against Aspergillus niger MTCC 281 at 100 ug/ml after 24 hrs by agar disc diffusion method
Type: functional
Conditions: MTCC 281, 24 h, read-out: DIZ

Which zone of inhibition at 100 µg/mL does the source give for `COc1cc(-c2nc(C3CC(c4ccc(O)cc4)=NN3c3ccccc3)no2)cc(OC)c1OC` (stereo unspecified) here?
Its zone of inhibition at 100 µg/mL is 30 mm.

System: Aspergillus flavus
Assay: Antimicrobial activity against Aspergillus flavus MTCC 873 at 100 ug/ml after 24 hrs by agar disc diffusion method
Type: functional
Conditions: MTCC 873, 24 h, read-out: DIZ

For `COc1cc(-c2nc(C3CC(c4ccc(O)cc4)=NN3c3ccccc3)no2)cc(OC)c1OC` (stereo unspecified), which zone of inhibition at 100 µg/mL is on record?
Its zone of inhibition at 100 µg/mL is 26 mm.

System: Aspergillus flavus
Assay: Antimicrobial activity against Aspergillus flavus MTCC 873 at 50 ug/ml after 24 hrs by agar disc diffusion method
Type: functional
Conditions: MTCC 873, 24 h, read-out: DIZ

For `COc1cc(-c2nc(C3CC(c4ccc(O)cc4)=NN3c3ccccc3)no2)cc(OC)c1OC` (stereo unspecified), which zone of inhibition at 50 µg/mL is on record?
Its zone of inhibition at 50 µg/mL is 14 mm.

System: Shigella flexneri
Assay: Antimicrobial activity against Shigella flexneri MTCC 1457 at 100 ug/ml after 24 hrs by agar disc diffusion method
Type: functional
Conditions: MTCC 1457, 24 h, read-out: DIZ

With `COc1cc(-c2nc(C3CC(c4ccc(O)cc4)=NN3c3ccccc3)no2)cc(OC)c1OC` (stereo unspecified) as the compound, how does the zone of inhibition at 100 µg/mL read?
The zone of inhibition at 100 µg/mL was 22 mm.

System: Shigella flexneri
Assay: Antimicrobial activity against Shigella flexneri MTCC 1457 at 50 ug/ml after 24 hrs by agar disc diffusion method
Type: functional
Conditions: MTCC 1457, 24 h, read-out: DIZ

With `COc1cc(-c2nc(C3CC(c4ccc(O)cc4)=NN3c3ccccc3)no2)cc(OC)c1OC` (stereo unspecified) as the compound, how does the zone of inhibition at 50 µg/mL read?
Its zone of inhibition at 50 µg/mL is 14 mm.

System: Klebsiella pneumoniae
Assay: Antimicrobial activity against Klebsiella pneumoniae MTCC 3384 at 100 ug/ml after 24 hrs by agar disc diffusion method
Type: functional
Conditions: MTCC 3384, 24 h, read-out: DIZ

Which zone of inhibition at 100 µg/mL does the source give for `COc1cc(-c2nc(C3CC(c4ccc(O)cc4)=NN3c3ccccc3)no2)cc(OC)c1OC` (stereo unspecified) here?
Its zone of inhibition at 100 µg/mL is 18 mm.

System: Klebsiella pneumoniae
Assay: Antimicrobial activity against Klebsiella pneumoniae MTCC 3384 at 50 ug/ml after 24 hrs by agar disc diffusion method
Type: functional
Conditions: MTCC 3384, 24 h, read-out: DIZ

Which zone of inhibition at 50 µg/mL does the source give for `COc1cc(-c2nc(C3CC(c4ccc(O)cc4)=NN3c3ccccc3)no2)cc(OC)c1OC` (stereo unspecified) here?
Its zone of inhibition at 50 µg/mL is 12 mm.

System: Escherichia coli
Assay: Antimicrobial activity against Escherichia coli MTCC 724 at 100 ug/ml after 24 hrs by agar disc diffusion method
Type: functional
Conditions: MTCC 724, 24 h, read-out: DIZ

With `COc1cc(-c2nc(C3CC(c4ccc(O)cc4)=NN3c3ccccc3)no2)cc(OC)c1OC` (stereo unspecified) as the compound, how does the zone of inhibition at 100 µg/mL read?
The zone of inhibition at 100 µg/mL was 16 mm.

System: Escherichia coli
Assay: Antimicrobial activity against Escherichia coli MTCC 724 at 50 ug/ml after 24 hrs by agar disc diffusion method
Type: functional
Conditions: MTCC 724, 24 h, read-out: DIZ

For `COc1cc(-c2nc(C3CC(c4ccc(O)cc4)=NN3c3ccccc3)no2)cc(OC)c1OC` (stereo unspecified), which zone of inhibition at 50 µg/mL is on record?
Its zone of inhibition at 50 µg/mL is 10 mm.

System: Staphylococcus aureus
Assay: Antimicrobial activity against Staphylococcus aureus MTCC 96 at 100 ug/ml after 24 hrs by agar disc diffusion method
Type: functional
Conditions: MTCC 96, 24 h, read-out: DIZ

Which zone of inhibition at 100 µg/mL does the source give for `COc1cc(-c2nc(C3CC(c4ccc(O)cc4)=NN3c3ccccc3)no2)cc(OC)c1OC` (stereo unspecified) here?
Its zone of inhibition at 100 µg/mL is 18 mm.

System: Staphylococcus aureus
Assay: Antimicrobial activity against Staphylococcus aureus MTCC 96 at 50 ug/ml after 24 hrs by agar disc diffusion method
Type: functional
Conditions: MTCC 96, 24 h, read-out: DIZ

For `COc1cc(-c2nc(C3CC(c4ccc(O)cc4)=NN3c3ccccc3)no2)cc(OC)c1OC` (stereo unspecified), which zone of inhibition at 50 µg/mL is on record?
Its zone of inhibition at 50 µg/mL is 10 mm.

System: Bacillus cereus
Assay: Antimicrobial activity against Bacillus cereus MTCC 8372 at 100 ug/ml after 24 hrs by agar disc diffusion method
Type: functional
Conditions: MTCC 8372, 24 h, read-out: DIZ

With `COc1cc(-c2nc(C3CC(c4ccc(O)cc4)=NN3c3ccccc3)no2)cc(OC)c1OC` (stereo unspecified) as the compound, how does the zone of inhibition at 100 µg/mL read?
Its zone of inhibition at 100 µg/mL is 18 mm.

System: Bacillus cereus
Assay: Antimicrobial activity against Bacillus cereus MTCC 8372 at 50 ug/ml after 24 hrs by agar disc diffusion method
Type: functional
Conditions: MTCC 8372, 24 h, read-out: DIZ

For `COc1cc(-c2nc(C3CC(c4ccc(O)cc4)=NN3c3ccccc3)no2)cc(OC)c1OC` (stereo unspecified), which zone of inhibition at 50 µg/mL is on record?
Its zone of inhibition at 50 µg/mL is 12 mm.

System: not listed separately
Assay: Antioxidant activity against ferric chloride-induced lipid peroxidation using egg lecithin at 50 ug/ml after 1 hr
Type: functional
Conditions: not given

With `COc1cc(-c2nc(C3CC(c4ccc(O)cc4)=NN3c3ccccc3)no2)cc(OC)c1OC` (stereo unspecified) as the compound, how does the inhibition read?
Its inhibition is 62%.

System: not listed separately
Assay: Antioxidant activity against ferric chloride-induced lipid peroxidation using egg lecithin at 100 ug/ml after 1 hr
Type: functional
Conditions: not given

Which inhibition does the source give for `COc1cc(-c2nc(C3CC(c4ccc(O)cc4)=NN3c3ccccc3)no2)cc(OC)c1OC` (stereo unspecified) here?
Its inhibition is 87%.

System: not listed separately
Assay: Antioxidant activity against ferric chloride-induced lipid peroxidation using egg lecithin at 10 ug/ml after 1 hr
Type: functional
Conditions: not given

Which inhibition does the source give for `COc1cc(-c2nc(C3CC(c4ccc(O)cc4)=NN3c3ccccc3)no2)cc(OC)c1OC` (stereo unspecified) here?
Its inhibition is 42%.

System: not listed separately
Assay: Antioxidant activity assessed as reducing power of ferric ion at 50 ug/ml after 20 mins
Type: functional
Design: scale not given: the % may be the effect or the level left
Conditions: not given

With `COc1cc(-c2nc(C3CC(c4ccc(O)cc4)=NN3c3ccccc3)no2)cc(OC)c1OC` (stereo unspecified) as the compound, how does the Activity read?
The Activity was 26%.

System: not listed separately
Assay: Antioxidant activity assessed as reducing power of ferric ion at 100 ug/ml after 20 mins
Type: functional
Design: scale not given: the % may be the effect or the level left
Conditions: not given

For `COc1cc(-c2nc(C3CC(c4ccc(O)cc4)=NN3c3ccccc3)no2)cc(OC)c1OC` (stereo unspecified), which Activity is on record?
Its Activity is 76%.

System: not listed separately
Assay: Antioxidant activity assessed as reducing power of ferric ion at 10 ug/ml after 20 mins
Type: functional
Design: scale not given: the % may be the effect or the level left
Conditions: not given

With `COc1cc(-c2nc(C3CC(c4ccc(O)cc4)=NN3c3ccccc3)no2)cc(OC)c1OC` (stereo unspecified) as the compound, how does the Activity read?
The Activity was 16%.

System: Radical scavenging activity
Assay: Antioxidant activity assessed as DPPH free radical scavenging activity at 50 ug/ml after 20 mins
Type: functional
Conditions: not given

With `COc1cc(-c2nc(C3CC(c4ccc(O)cc4)=NN3c3ccccc3)no2)cc(OC)c1OC` (stereo unspecified) as the compound, how does the Activity read?
The Activity was 63%.

System: Radical scavenging activity
Assay: Antioxidant activity assessed as DPPH free radical scavenging activity at 100 ug/ml after 20 mins
Type: functional
Conditions: not given

For `COc1cc(-c2nc(C3CC(c4ccc(O)cc4)=NN3c3ccccc3)no2)cc(OC)c1OC` (stereo unspecified), which Activity is on record?
Its Activity is 91%.

System: Radical scavenging activity
Assay: Antioxidant activity assessed as DPPH free radical scavenging activity at 10 ug/ml after 20 mins
Type: functional
Conditions: not given

Which Activity does the source give for `COc1cc(-c2nc(C3CC(c4ccc(O)cc4)=NN3c3ccccc3)no2)cc(OC)c1OC` (stereo unspecified) here?
The Activity was 34%.
